We go through nine molecules from paper PMC9894920, “Development of an improved and specific inhibitor of NADPH oxidase 2 to treat traumatic brain injury” (Redox Biology, 2023).

The nature of series [1]: Rat liver microsomal stability. The note with it: SD, rat, liver microsomes, read-out: Rat_SD/Microsomes t1/2 (m). It counts as in vitro ADME. As for the experimental part:
(§1) The rat liver microsomal stability, parallel artificial membrane permeability assay (PAMPA), and aqueous kinetic solubility assay in phosphate-buffered saline (PBS) buffer were performed as described in the indicated references.

Series [2] in a line: Aqueous kinetic solubility in PBS buffer. It counts as physicochemical. Conditions: aqueous buffer, kinetic from dmso stock, read-out: Solubility. How it is done:
as §1

Series [3] can be described thus: Parallel artificial membrane permeability assay (PAMPA). It counts as in vitro ADME. Conditions: pH 7.4, PAMPA, pH7.4, read-out: Permeability(pH7.4) (PAMPA_Pion_Lipid 1e-6 cm/s). As for the experimental part:
as §1
A general note: The PAMPA barrier holds no transporters, so it reflects passive diffusion.

The next series deals with T1, Bovine Xanthine Oxidase (Bos taurus, UniProt P80457).
T1 construct: purchased Sigma
T1 sequence (P80457 whole entry): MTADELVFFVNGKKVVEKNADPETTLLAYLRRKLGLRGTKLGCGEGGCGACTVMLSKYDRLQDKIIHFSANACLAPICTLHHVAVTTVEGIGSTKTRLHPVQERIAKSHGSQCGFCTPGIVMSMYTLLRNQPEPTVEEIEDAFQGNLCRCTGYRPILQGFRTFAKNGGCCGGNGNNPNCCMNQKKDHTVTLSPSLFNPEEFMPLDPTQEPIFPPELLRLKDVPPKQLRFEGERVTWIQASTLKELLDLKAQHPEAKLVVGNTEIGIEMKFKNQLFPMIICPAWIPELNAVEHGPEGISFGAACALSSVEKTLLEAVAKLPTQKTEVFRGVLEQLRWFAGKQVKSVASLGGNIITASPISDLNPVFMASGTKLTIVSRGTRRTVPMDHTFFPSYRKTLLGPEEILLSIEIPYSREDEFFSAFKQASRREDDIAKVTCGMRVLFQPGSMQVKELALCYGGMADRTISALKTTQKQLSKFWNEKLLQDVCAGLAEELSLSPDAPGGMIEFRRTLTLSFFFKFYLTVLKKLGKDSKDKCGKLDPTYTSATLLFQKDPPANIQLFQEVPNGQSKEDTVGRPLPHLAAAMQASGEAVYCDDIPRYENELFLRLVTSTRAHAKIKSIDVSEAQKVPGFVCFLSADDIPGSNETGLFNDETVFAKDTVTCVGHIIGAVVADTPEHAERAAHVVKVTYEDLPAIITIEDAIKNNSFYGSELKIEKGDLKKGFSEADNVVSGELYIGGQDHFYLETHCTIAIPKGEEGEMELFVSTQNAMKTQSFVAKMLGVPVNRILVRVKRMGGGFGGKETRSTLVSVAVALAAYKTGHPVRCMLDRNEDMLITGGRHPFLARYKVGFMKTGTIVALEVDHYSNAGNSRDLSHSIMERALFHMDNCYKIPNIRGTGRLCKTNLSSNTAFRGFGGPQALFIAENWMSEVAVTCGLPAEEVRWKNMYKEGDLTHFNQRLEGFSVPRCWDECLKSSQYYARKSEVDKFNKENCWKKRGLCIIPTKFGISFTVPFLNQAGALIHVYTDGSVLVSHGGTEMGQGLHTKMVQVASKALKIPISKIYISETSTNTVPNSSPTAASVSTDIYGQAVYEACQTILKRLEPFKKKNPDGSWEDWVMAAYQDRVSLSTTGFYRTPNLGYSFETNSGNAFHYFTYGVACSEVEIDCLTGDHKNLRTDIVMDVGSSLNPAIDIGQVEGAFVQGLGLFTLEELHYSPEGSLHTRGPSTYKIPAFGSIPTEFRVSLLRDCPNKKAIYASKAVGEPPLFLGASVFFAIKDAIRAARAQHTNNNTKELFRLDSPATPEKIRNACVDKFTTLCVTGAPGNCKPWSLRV
Briefly: Xanthine oxidase / hypoxanthine luminol chemiluminescence assay. The format is biochemical. Conditions: xanthine oxidase with hypoxanthine; mean ± SD, n in cell; read-out: X/XO IC50. As for the experimental part: Bovine Xanthine Oxidase (Sigma) was dialyzed in PBS to remove ammonium sulfate and stored at 4 °C. Hypoxanthine was prepared by heating in DMSO. Reactions were prepared by diluting xanthine oxidase in HBSS (final concentration 1.25 mU/mL) that contained 50 μM luminol and were preincubated 5 min with control or inhibitor before the addition of hypoxanthine at a final concentration of 0.5 mM. Luminescence was measured at 24 °C as described above.

The target of a further series is T2, NOX2 (Homo sapiens, UniProt P04839).
T2 sequence (P04839 2-570 limits assumed): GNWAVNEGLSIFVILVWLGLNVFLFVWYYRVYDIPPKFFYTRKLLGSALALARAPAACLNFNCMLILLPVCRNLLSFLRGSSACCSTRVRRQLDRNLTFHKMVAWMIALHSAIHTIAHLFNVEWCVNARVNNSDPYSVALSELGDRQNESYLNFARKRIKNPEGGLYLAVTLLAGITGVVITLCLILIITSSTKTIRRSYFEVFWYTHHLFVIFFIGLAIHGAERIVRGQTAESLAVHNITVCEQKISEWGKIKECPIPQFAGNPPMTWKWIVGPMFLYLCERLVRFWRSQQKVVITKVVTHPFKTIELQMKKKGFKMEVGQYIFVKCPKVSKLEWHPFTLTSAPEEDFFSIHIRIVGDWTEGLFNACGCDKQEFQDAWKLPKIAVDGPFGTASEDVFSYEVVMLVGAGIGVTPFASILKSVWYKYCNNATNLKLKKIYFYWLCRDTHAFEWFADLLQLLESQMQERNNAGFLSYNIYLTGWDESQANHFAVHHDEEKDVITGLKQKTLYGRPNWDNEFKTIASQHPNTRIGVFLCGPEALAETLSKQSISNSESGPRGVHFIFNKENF
T2 sequence (P13498 2-195 partner limits assumed): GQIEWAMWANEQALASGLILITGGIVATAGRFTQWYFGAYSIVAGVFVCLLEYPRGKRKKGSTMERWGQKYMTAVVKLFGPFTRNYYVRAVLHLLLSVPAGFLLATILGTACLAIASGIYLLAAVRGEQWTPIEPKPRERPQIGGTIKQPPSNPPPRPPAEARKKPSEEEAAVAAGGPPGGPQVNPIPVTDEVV
In words: NOX2 activity in primary human granulocytes (PMN), luminol chemiluminescence. The format is cell-based. On the set-up: When tested against NOX2 in primary human neutrophils; endogenous in cells; host or cells: primary human granulocytes (PMN) from donor blood. Conditions: mean ± SD, n in cell; read-out: NOX-2 IC50 from PMN. How it is done: Human blood was obtained after informed consent by the Department of Transfusion Medicine (NIH Clinical Center) and provided as de-identified specimens. Human granulocytes were isolated using Percoll density fractionation as described and NOX2 activity was assessed in white polypropylene flat bottom 96 well plates following 15 min of preincubation at 37 °C with compounds or vehicle controls using 50 μM luminol as a chemiluminescence enhancer in an assay volume of 100 μl RPMI1640 with 1.1 × 10^5 cells/well in Varioskan Lux luminometer for 30 cycles of 1 s per well (approximately 1 h).

≈ marks a conversion by molar mass, not a printed value. Where only a bound is given, the exact number is not on record here.

As usually defined, the solubility is the dissolved amount per volume that the medium holds. Turning to `CC(n1cc(-c2ccc3c(c2)N(C)CC3)c2c(N[S+](=O)([O-])c3ccn(C)n3)ccnc21)C(F)(F)F` (stereo not drawn) [NCGC00600887, CC(N1C=C(C2=C(N[S+]([O-])(=O)C3=NN(C)C=C3)C=CN=C12)C4=CC5=C(CCN5C)C=C4)C(F)(F)F], the half-life in series [1] worked out at 3.3 min. For the same molecule, the solubility in series [2] turned out to be 21.9 µg/mL (≈ 43.4 µM). Also, the Papp in series [3] amounted to 629 ×10⁻⁶ cm/s. The IC50 on Bovine Xanthine Oxidase came out at 872 nM; at NOX2 it was 541 nM.
Turning to `CN1CCc2ccc(-c3cn(CC(F)(F)F)c4nccc(N[S+](=O)([O-])c5ccn(C)n5)c34)cc21` [NCGC00600903, CN1C=CC(=N1)[S+]([O-])(=O)NC2=C3C(=CN(CC(F)(F)F)C3=NC=C2)C4=CC5=C(CCN5C)C=C4], the half-life in series [1] came to 3.3 min. The solubility in series [2] was 12.2 µg/mL (≈ 24.9 µM). In addition, the Papp in series [3] turned out to be 53.6 ×10⁻⁶ cm/s. The IC50 worked out at 56 ± 79 nM at Bovine Xanthine Oxidase and 1680 ± 2070 nM on NOX2.
Regarding `Cn1ccc([S+](=O)([O-])Nc2ccnc3c2c(-c2ccc4c(c2)NCC4)cn3C2CC2)n1` [NCGC00601851, CN1C=CC(=N1)[S+]([O-])(=O)NC2=C3C(=CN(C4CC4)C3=NC=C2)C5=CC6=C(CCN6)C=C5], the half-life in series [1] is 4.5 min. In addition, in series [2], the solubility is more than 64 µg/mL. The Papp in series [3] was found to be 191 ×10⁻⁶ cm/s. Moreover, the IC50 at Bovine Xanthine Oxidase stood at 7520 ± 10500 nM; at NOX2, 1530 ± 1360 nM.
As to `Cn1ccc([S+](=O)([O-])Nc2ccnc3c2c(-c2ccc4c(c2)C(NC(=O)OC(C)(C)C)CC4)cn3C2CC2)n1` (stereo not drawn) [NCGC00650021, CN1C=CC(=N1)[S+]([O-])(=O)NC2=C3C(=CN(C4CC4)C3=NC=C2)C5=CC6=C(CCC6NC(=O)OC(C)(C)C)C=C5], the half-life in series [1] is 5.7 min. The solubility in series [2] was found to be 26.2 µg/mL (≈ 47.8 µM). Also, the Papp in series [3] stood at 1940 ×10⁻⁶ cm/s. Further, the IC50 on Bovine Xanthine Oxidase is 4430 nM; on NOX2, 2420 nM.
In the case of `Cn1ccc([S+](=O)([O-])Nc2ccnc3c2c(-c2ccc4c(c2)C(N)CC4)cn3C2CC2)n1` (stereo not drawn) [NCGC00650025, CN1C=CC(=N1)[S+]([O-])(=O)NC2=C3C(=CN(C4CC4)C3=NC=C2)C5=CC6=C(CCC6N)C=C5], the half-life in series [1] was found to be 14.5 min. In addition, the solubility in series [2] was found to be 24 µg/mL (≈ 53.5 µM). Further, the Papp in series [3] was 13 ×10⁻⁶ cm/s. The IC50 at Bovine Xanthine Oxidase is more than 20000 nM; at NOX2, 447 nM.
`Cn1ccc([S+](=O)([O-])Nc2ccnc3c2c(-c2ccc4c(c2)CCC4)cn3C2CC2)n1` [NCGC00650026, CN1C=CC(=N1)[S+]([O-])(=O)NC2=C3C(=CN(C4CC4)C3=NC=C2)C5=CC6=C(CCC6)C=C5]: the half-life in series [1] was determined as 0.9 min. Besides, in series [2], the solubility was found to be 1 µg/mL (≈ 2.31 µM). For the same molecule, the Papp in series [3] was 1420 ×10⁻⁶ cm/s. For the same molecule, the figures for the IC50 at Bovine Xanthine Oxidase and at NOX2 were more than 20000 nM and 3100 ± 2590 nM, respectively.
For `Cn1ccc([S+](=O)([O-])Nc2ccnc3c2c(-c2ccc4c(c2)N(C2CC2)C(=O)C42CC2)cn3C2CC2)n1` [NCGC00650040, CN1C=CC(=N1)[S+]([O-])(=O)NC2=C3C(=CN(C4CC4)C3=NC=C2)C5=CC6=C(C=C5)C7(CC7)C(=O)N6C8CC8], in series [1], the half-life is more than 30 min. Moreover, the solubility in series [2] was 22.9 µg/mL (≈ 44.5 µM). Moreover, the Papp in series [3] was determined as 249 ×10⁻⁶ cm/s. The IC50 was determined as 4210 ± 550 nM at Bovine Xanthine Oxidase and 15200 nM at NOX2.
Consider `CNC1CCc2ccc(-c3cn(C4CC4)c4nccc(N[S+](=O)([O-])c5ccn(C)n5)c34)cc21` (stereo not drawn) [NCGC00650057, CNC1CCC2=C1C=C(C=C2)C3=CN(C4CC4)C5=NC=CC(N[S+]([O-])(=O)C6=NN(C)C=C6)=C35], for which, in series [1], the half-life amounted to 17.9 min. In addition, in series [2], the solubility is more than 68 µg/mL. In addition, the Papp in series [3] came out at 4 ×10⁻⁶ cm/s. Further, the IC50 on Bovine Xanthine Oxidase came to 2290 ± 3230 nM; at NOX2 it was 1610 nM.
Turning to `Cn1ccc([S+](=O)([O-])Nc2ccnc3c2c(-c2ccc4c(c2)C(=O)CC4)cn3C2CC2)n1` [NCGC00650061, CN1C=CC(=N1)[S+]([O-])(=O)NC2=C3C(=CN(C4CC4)C3=NC=C2)C5=CC6=C(CCC6=O)C=C5], in series [1], the half-life was 11.8 min. In series [2], the solubility was more than 66 µg/mL. Also, the Papp in series [3] turned out to be 72.8 ×10⁻⁶ cm/s. Further, the IC50 was found to be 2340 ± 2320 nM on Bovine Xanthine Oxidase and 4250 nM at NOX2.
